Measurements reported in article PMC7997032, “Organic synthesis and anti-influenza A virus activity of cyclobakuchiols A, B, C, and D” (PLoS ONE, 2021).
“And” between values parts separate entries of the source, which are not always exact repeats. Identical values can stand only once.

System: MDCK cells
Assay: MTT assay (cytotoxicity against MDCK cells)
Type: cell-based, canine
Settings: MDCK cells; for MTT, DMSO as 100 (DMSOを 100として), ave / MTT 72h AVE (DMSO = 100): 72h; for MTT, DMSO as 100 (DMSOを 100として), ave: mean of 5 wells (200409 #1 and #3); for MTT 72h AVE (DMSO = 100): summary AVE; for MTT 24h, AVE (DMSO as 100) / MTT 24h, 570-650nm, DMSO as 100, ave: mean of 5 wells from 3 experiments; for MTT 24h, AVE (DMSO as 100): relative to DMSO = 100; for MTT 24h, 570-650nm, DMSO as 100, single replicate: individual wells (200331; 200403 #2 1,2; 200403 #3 1,2); for 570-650nm (MTT absorbance, single wells) / 570-650nm ave (mean MTT absorbance of 5 wells) / MTT absorbance with DMSO as 100 (DMSOを 100として), single wells: MTT 72h; for 570-650nm (MTT absorbance, single wells): experiments #1-#3, duplicate wells; for MTT absorbance with DMSO as 100 (DMSOを 100として), single wells: relative to mean of DMSO
Method: 1–5 (0.8–100 μM) were prepared in DMSO (100 μM, 1%; 50 μM, 0.5%; 25 μM, 0.25%; 12.5 μM, 0.125%; 6.3 μM, 0.063%; 3.1 μM, 0.031%; 1.6 μM, 0.016%; 0.8 μM, 0.008%) and mixed with infection medium (DMEM supplemented with 1% bovine serum albumin (BSA; Wako), P/S and 4 mM L-glutamine). The resulting mixture was added to the cells and incubated for 24 or 72 h at 37°C in the presence of 5% CO2. After incubation, cell viability was determined using an MTT cell count kit (Nacalai Tesque) according to the manufacturer’s instructions, as previously described.

With `C=C[C@]1(C)CC[C@@H](C(C)(C)O)[C@H](c2ccc(O)cc2)C1` [Cyclo. D] the “MTT, DMSO as 100 (DMSOを 100として), ave” value (0.78uM) was 98.8071, the “MTT, DMSO as 100 (DMSOを 100として), ave” value (1.56uM) was 117.006 and the “MTT, DMSO as 100 (DMSOを 100として), ave” value (3.125uM) was 147.657. The “MTT 72h AVE (DMSO = 100)” value (6.25 (uM)) was 128.371, the “MTT 72h AVE (DMSO = 100)” value (12.5 (uM)) was 127.934 and the “MTT 72h AVE (DMSO = 100)” value (25 (uM)) was 145.717. For the same molecule, the “MTT 72h AVE (DMSO = 100)” value (50 (uM)) was 126.261, the “MTT 72h AVE (DMSO = 100)” value (100 (uM)) was 126.655 and the “MTT 24h, AVE (DMSO as 100)” value (0.78 uM) was 97.8994. For the same molecule, the “MTT 24h, AVE (DMSO as 100)” value (1.56 uM) was 96.8321, the “MTT 24h, 570-650nm, DMSO as 100, single replicate” value (“MTT 24h … single replicate” below) (3.125uM) was 84.6917 and 82.6734 and 92.4491 and 113.857 and 84.268 and the “MTT 24h, 570-650nm, DMSO as 100, ave” value (3.125uM) was 91.5878. For the same molecule, the “MTT 24h … single replicate” value (6.25uM) was 85.6335 and 89.7131 and 106.9 and 111.896 and 88.988, the “MTT 24h, 570-650nm, DMSO as 100, ave” value (6.25uM) was 96.6263 and the “MTT 24h … single replicate” value (12.5uM) was 81.4488 and 91.9219 and 102.896 and 113.782 and 96.5227. For the same molecule, the “MTT 24h, 570-650nm, DMSO as 100, ave” value (12.5uM) was 97.3142, the “MTT 24h … single replicate” value (25uM) was 77.2963 and 96.4082 and 113.294 and 115.224 and 87.3126 and the “MTT 24h, 570-650nm, DMSO as 100, ave” value (25uM) was 97.9071. The “MTT 24h … single replicate” value (50uM) was 91.2134 and 100.963 and 94.7794 and 115.361 and 101.24, the “MTT 24h, 570-650nm, DMSO as 100, ave” value (50uM) was 100.712 and the “MTT 24h … single replicate” value (100uM) was 94.6456 and 103.228 and 107.83 and 131.616 and 116.582. The “MTT 24h, 570-650nm, DMSO as 100, ave” value (100uM) was 110.78, the “570-650nm (MTT absorbance, single wells)” value (0.78uM) was 0.4378 and 0.7486 and 0.8741 and 0.5119 and 0.7887 and 0.8621 and the “570-650nm (MTT absorbance, single wells)” value (3.13uM (3.125uM in summary block)) was 0.9735 and 1.011 and 0.8858 and 1.0444 and 0.9175 and 1.1144. The “570-650nm ave (mean MTT absorbance of 5 wells)” value (“570-650nm ave” below) (6.25uM) was 0.8781, the “MTT absorbance with DMSO as 100 (DMSOを 100として), single wells” value (shortened to “MTT absorbance with DMSO”) (6.25uM) was 79.8684 and 128.626 and 158.904 and 136.433 and 138.026 and the “570-650nm ave” value (12.5uM) was 1.0183. For the same molecule, the “570-650nm (MTT absorbance, single wells)” value (12.5uM) was 0.9745 and 1.0068 and 0.9175 and 1.0063 and 1.0002 and 1.1607, the “MTT absorbance with DMSO” value (12.5uM) was 126.426 and 115.27 and 145.824 and 125.66 and 126.489 and the “570-650nm ave” value (25uM) was 1.096. For the same molecule, the “570-650nm (MTT absorbance, single wells)” value (25uM) was 1.0789 and 1.1027 and 0.9947 and 1.0822 and 1.1213 and 1.1788, the “MTT absorbance with DMSO” value (25uM) was 143.89 and 132.256 and 156.734 and 149.089 and 146.616 and the “570-650nm ave” value (50uM) was 1.152. For the same molecule, the “570-650nm (MTT absorbance, single wells)” value (50uM) was 1.148 and 1.1434 and 1.0891 and 1.1437 and 1.0821 and 1.3031, the “MTT absorbance with DMSO” value (50uM) was 125.321 and 119.338 and 142.787 and 118.571 and 125.288 and the “570-650nm ave” value (100uM) was 1.192. The “570-650nm (MTT absorbance, single wells)” value (100uM) was 1.3579 and 1.2781 and 1.2394 and 0.9368 and 1.1592 and 1.3488 and the “MTT absorbance with DMSO” value (100uM) was 99.5008 and 131.641 and 143.261 and 123.123 and 135.751.
